pKi: −log10 of the molar value. Where two headings read alike, the source gives them in different places.

Assay [1] addresses 5-HT2C receptor (Rattus norvegicus (Rat), UniProt P08909).
Experimental: 2) Preparation of 5-HT2C Membrane
The rat cortex was taken out of a refrigerator at −80° C. and thawed spontaneously. The solution A was added, and the mixture was homogenized for 3-4 s at 4th gear for a total of 4 times and centrifuged at 50000 g for 25 min at 4° C. The supernatant was discarded, and the solution A was added into the precipitate. The mixture was mixed well using a vortex mixer and centrifuged at 50000 g for 25 min at 4° C. (repeated twice). The supernatant was discarded after the centrifugation, and the precipitate was stored at −80° C. for later use.
2) Competitive 5-HT2C Receptor Binding Assay
Step 1: the prepared membrane was suspended in the homogenate B to obtain a 210 mg/mL membrane suspension for later use.
Step 2: 100 μL of the membrane suspension was added into each reaction tube.
Step 3: 100 μL of the solution B was added into a total binding tube (TB), 100 μL of Ketanserin (final concentration: 1.0×10^−5 M) was added into a non-specific binding tube (NB), and 100 μL of test compound was added into each compound binding tube (CB).
Step 4: 10 μL of radioligand ^3H-Mesulergine was added into each reaction tube to reach a final concentration of 3 nM.
Step 5: each reaction tube was incubated at 37° C. for 25 min. After the reaction was completed, the binding ligands were rapidly filtered under reduced pressure, wherein the Whatman test paper GF/C was washed with 0.5% PEI solution 1 h in advance. The filter membrane was fully washed with cold Tris buffer solution, taken out and put into a 4 mL scintillation disc, which was then added with 1 mL toluene scintillation solution and shaken for mixing well.
Step 6: the scintillation disc was put into a liquid scintillation counter for counting.
The target of assay [2] is 5-HT2A receptor (Homo sapiens (Human), UniProt P28223). The assay is described as follows: Competitive 5-HT2A receptor binding assay (3H-Ketanserin, CHO-5-HT2A membrane). The settings on record: for 2C/2A: ratio of 5-HT2C Ki to 5-HT2A Ki. As for the experimental part: 1) Preparation of CHO-5-HT2A Receptor Membrane
Chain of 5-HT2A receptor (P28223 whole entry): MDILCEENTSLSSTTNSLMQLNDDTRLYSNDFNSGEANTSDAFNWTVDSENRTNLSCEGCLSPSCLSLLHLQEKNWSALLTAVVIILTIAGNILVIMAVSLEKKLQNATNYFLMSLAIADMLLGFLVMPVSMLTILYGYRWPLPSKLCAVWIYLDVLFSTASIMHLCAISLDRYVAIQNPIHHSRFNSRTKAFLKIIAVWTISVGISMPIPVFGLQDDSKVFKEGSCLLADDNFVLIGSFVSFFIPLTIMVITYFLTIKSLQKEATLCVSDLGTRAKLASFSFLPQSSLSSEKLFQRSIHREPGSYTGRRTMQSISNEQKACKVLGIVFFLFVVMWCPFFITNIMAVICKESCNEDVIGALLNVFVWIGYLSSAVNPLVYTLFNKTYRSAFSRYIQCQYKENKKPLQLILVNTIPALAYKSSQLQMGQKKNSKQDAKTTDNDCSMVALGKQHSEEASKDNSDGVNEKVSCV
The precipitate was collected, and the supernatant was discarded. The solution B was added into the precipitate. […] The supernatant was carefully discarded, and the solution B was added into the precipitate again. […] The precipitate obtained was stored at −80° C.
1) Competitive 5-HT2A Receptor Binding Assay
Step 2: 100 μL of the membrane preparation was added into each reaction tube.
After the filtration, the filter membrane was dried at 60° C. and added into a scintillation disc attached with a bottom membrane, which was then added with 40 μL of scintillation liquid, sealed with a top membrane, and left to stand.

For assay [3], the system named is MK-801-induced high activity behavior of mice. The assay is described as follows: Dizocilpine (MK-801)-induced high activity test in mice. The settings on record: Mus musculus, 1 h, intragastric, MK-801 0.3 mg/kg i.p., 60 min, read-out: ED50 for inhibiting the MK-801-induced high activity behavior. Type of assay: in vivo. As for the experimental part: 2. Dizocilpine (MK-801)-Induced High Activity Test in Mice 2.1 Test Method
Mice were stratified according to body weight and then randomly divided into a model control group, a blank control group and drug administration groups. After the administration of a test substance (or a control substance), the mice were placed into an autonomous activity test box (a black polyethylene box with the specification of 29 cm×29 cm×30 cm) for adaptation, and injected with MK-801 at 0.3 mg/kg intraperitoneally 1 h after the intragastric administration. The mice were then placed into the autonomous activity test box for video recording for 60 min. Video analysis was performed after the video recording to evaluate the activity of the mice.

In assay [4] the test system is DOI-induced head shaking behavior of mice. The assay is described as follows: DOI-induced head shaking (head thrust) test in mice. Type of assay: in vivo. To be noted: Mus musculus, intragastric, DOI 1 mg/kg i.p., 0-20 min, read-out: ED50 for inhibiting the DOI-induced head shaking behavior. As for the experimental part: 1. Head Thrust Test in Mice
Mice were stratified according to body weight and then randomly divided into a model control group, a blank control group and drug administration groups. 1 h after the intragastric administration of a vehicle or a drug, the animals were placed in a beaker (with the diameter of 13 cm and the height of 19 cm) paved with fresh padding, and were injected with a modeling drug DOI ((±)-1-(2,5-dimethoxy-4-iodophenyl)-2-aminopropane hydrochloride or (±)-2,5-dimethoxy-4-iodoamphetamine hydrochloride) intraperitoneally at a dose of 1 mg/kg. The head shaking times of the mice during the 0-20 min after the intraperitoneal injection of DOI were recorded. The head shaking behavior is defined as a rapid rotational twitching or wet dog-like shaking of the mouse head, which is distinguished from normal grooming or exploring behavior.

Setting [5] is: read-out: 5-HT2C (Ki value), rat cortex membrane, 3H-Mesulergine.
Where [6] appears, read: CHO-5-HT2A membrane, 3H-Ketanserin, read-out: 5-HT2A (Ki value).

Chain of 5-HT2C receptor (P08909 33-460): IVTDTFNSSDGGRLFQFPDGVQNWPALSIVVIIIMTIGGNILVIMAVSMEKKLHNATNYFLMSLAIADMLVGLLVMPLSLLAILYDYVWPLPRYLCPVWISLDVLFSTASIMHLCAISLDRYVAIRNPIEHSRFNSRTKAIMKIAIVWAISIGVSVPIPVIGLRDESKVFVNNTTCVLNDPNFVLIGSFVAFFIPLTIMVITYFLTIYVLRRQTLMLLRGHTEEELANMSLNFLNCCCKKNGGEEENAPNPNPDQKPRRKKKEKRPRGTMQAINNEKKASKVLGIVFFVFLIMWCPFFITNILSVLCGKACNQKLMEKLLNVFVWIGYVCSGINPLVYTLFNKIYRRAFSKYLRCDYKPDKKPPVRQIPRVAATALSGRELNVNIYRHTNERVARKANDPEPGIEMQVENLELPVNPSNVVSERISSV

As for `CC(C)Cc1ccc(CN2Cc3ccc(F)cc3CN(C3CCN(C)CC3)C2=O)cc1` [NH-K-A19008, 8-fluoro-2-(1-methylpiperidin-4-yl)-4-[[4-(2-methylpropyl)phenyl]methyl]-1,5-dihydro-2,4-benzodiazepine-3-one], the negative-log Ki (pKi) is 7.37 in assay [1] (setting [5]) and 8.28 in assay [2] (setting [6]). In assay [2], the 2C/2A came to 7.999.

Take `CC(C)Oc1ccc(CN2Cc3ccc(F)cc3CN(C3CCN(C)CC3)C2=O)cc1F` [NH-K-A19012, 8-fluoro-2-(1-methylpiperidin-4-yl)-4-[[(3-fluoro-4-isopropoxy)phenyl]methyl]-1,5-dihydro-2,4-benzodiazepine-3-one]: the median effective dose (ED50) turned out to be 3.73 mg/kg in assay [3] and 0.3 mg/kg in assay [4]. Also, the values for the pKi in assay [1] (setting [5]) and in assay [2] (setting [6]) were 8.03 and 9.02, respectively. Moreover, the 2C/2A in assay [2] amounted to 9.882.

Turning to `CC(C)COc1ccc(CN2Cc3ccc(F)cc3CN([C@H]3CCN(C)C[C@H]3F)C2=O)cc1` [NH-K-A19014-0, (3R,4S)-8-fluoro-2-(1-methyl-3-fluoropiperidin-4-yl)-4-[[4-(2-methylpropoxy)phenyl]methyl]-1,5-di hydro-2,4-benzodiazepine-3-one], the negative-log Ki (pKi) was 9.70 in assay [1] and 8.38 in assay [2] (setting [6]). For the same compound, in assay [2], the 2C/2A stood at 0.049.

For the compound `CC(C)COc1ccc(CN2Cc3cc(F)c(F)cc3CN(C3CCN(C)CC3)C2=O)cc1` [NH-K-A20001, 7,8-difluoro-2-(4-isobutoxybenzyl)-4-(1-methylpiperidin-4-yl)-1,2,4,5-tetrahydro-3H-benzo[e][1,3]diazepin-3-one], in assay [2] (setting [6]), the pKi is 8.22.

As to `CC(C)COc1ccc(CN2Cc3ccc(F)cc3CN([C@H]3CCN(C)C[C@@H]3F)C2=O)cc1` [NH-K-A19014-0A, (3S,4S)-8-fluoro-2-(1-methyl-3-fluoropiperidin-4-yl)-4-[[4-(2-methylpropoxy)phenyl]methyl]-1,5-dihydro-2,4-benzodiazepine-3-one], the pKi was 7.58 in assay [1] and 11.70 in assay [2] (setting [6]). For the same compound, in assay [2], the 2C/2A was found to be 16029.47.

For the compound `CC(C)COc1ccc(CN2Cc3ccccc3CN(C3CCN(C)CC3)C2=O)cc1` [NH-K-A19020, 2-(1-methylpiperidin-4-yl)-4-[[4-(2-methylpropoxy)phenyl]methyl]-1,5-dihydro-2,4-benzodiazepine-3-one], in assay [2] (setting [6]), the pKi is 8.76.

`CC(C)Oc1ccc(CN2Cc3ccc(F)cc3CN(C3CCN(C)CC3)C2=O)cn1` [NH-K-A19013, 8-fluoro-2-(1-methylpiperidin-4-yl)-4-[[(6-isopropoxy)pyridin-3-yl]methyl]-1,5-dihydro-2,4-benzodiazepine-3-one]: in assay [2] (setting [6]), the negative-log Ki (pKi) was 8.01.

For the compound `CC(C)Oc1ccc(CN2Cc3ccc(F)cc3CN(C3CCN(C)CC3)C2=O)c(F)c1` [NH-K-A19011, 8-fluoro-2-(1-methylpiperidin-4-yl)-4-[[(2-fluoro-4-isopropoxy)phenyl]methyl]-1,5-dihydro-2,4-benzodiazepine-3-one], the pKi in assay [2] (setting [6]) is 7.90.

On to `CC(C)COc1ccc(CN2Cc3ccc(F)cc3CN(C3CCN(C)C3)C2=O)cc1` (stereo not drawn) [NH-K-A19015], for which the figures for the pKi in assay [1] and in assay [2] were 9.39 and 8.77, respectively.

As for `CN1CCC(N2Cc3cc(F)ccc3CN(Cc3ccc(CC(C)(C)O)cc3)C2=O)CC1` [NH-K-A19010, 7-fluoro-2-[[4-(2-hydroxy-2-methylpropyl)phenyl]methyl]-4-(1-methylpiperidin-4-yl)-1,5-dihydro-2,4-benzodiazepin-3-one], the figures for the pKi in assay [1] (setting [5]) and in assay [2] (setting [6]) were 7.74 and 7.70, respectively. Besides, in assay [2], the 2C/2A worked out at 0.91.

For `CC(C)COc1ccc(CN2Cc3ccc(F)cc3CC3(CCN(C)CC3)C2=O)cc1` [NH-K-A19019, 7-fluoro-1′-methyl-2-[[4-(2-methylpropoxy)phenyl]methyl]-1,2-dihydrospiro[benzo[c]azepine-4,4′-piperidine]-3(5H)-one], the pKi in assay [2] (setting [6]) is 7.27.

As for `COc1ccc(CN2Cc3ccc(F)cc3CN(C3CCN(C)CC3)C2=O)cc1` [NH-K-A19009, 8-fluoro-2-(1-methylpiperidin-4-yl)-4-[(4-methoxyphenyl)methyl]-1,5-dihydro-2,4-benzodiazepine-3-one], the pKi in assay [1] (setting [5]) is 8.69; in assay [2] (setting [6]), 8.52. In assay [2], the 2C/2A is 0.679.

Turning to `CC(C)COc1ccc(CN2Cc3cc(Cl)ccc3CN(C3CCN(C)CC3)C2=O)cc1` [NH-K-A190017, 7-chloro-2-(1-methylpiperidin-4-yl)-4-[[4-(2-methylpropoxy)phenyl]methyl]-1,5-dihydro-2,4-benzo diazepine-3-one], the negative logarithm of the Ki (pKi) is 6.31 in assay [1] (setting [5]) and 8.79 in assay [2] (setting [6]). Also, in assay [2], the 2C/2A amounted to 298.694.

As to `CC(C)CNc1ccc(CN2Cc3ccc(F)cc3CN(C3CCN(C)CC3)C2=O)cc1` [NH-K-A19007, 8-fluoro-2-(1-methylpiperidin-4-yl)-4-[[4-(2-methylpropylamino)phenyl]methyl]-1,5-dihydro-2,4-benzodiazepine-3-one], the negative-log Ki (pKi) in assay [1] (setting [5]) was 7.56; in assay [2] (setting [6]), 8.57. Besides, the 2C/2A in assay [2] came to 10.040.

Consider `CN1CCC(N2Cc3ccc(F)cc3CN(Cc3ccc(OC4CC4)cc3)C2=O)CC1` [NH-K-A19022, 4-[(4-cyclopropoxyphenyl)methyl]-7-fluoro-2-(1-methylpiperidin-4-yl)-1,5-dihydro-2,4-benzodiaze pine-3-one], for which the negative logarithm of the Ki (pKi) in assay [1] (setting [5]) is 8.88; in assay [2] (setting [6]), 9.82. In assay [2], the 2C/2A amounted to 8.76.

The values are drawn from patent US12559471B2, “1,5-dihydro-2,4-benzodiazepine-3-one derivative and application thereof” (JIANGSU NHWA PHARMACEUTICAL CO., LTD, priority 2020, dated 2026).
